The source of these data is patent publication US20080255150A1, “Novel Compounds” (ASTRAZENECA AB, priority 2005, published 2008).

In the assay the target is T1, rhCRTh2 (Homo sapiens, UniProt Q9Y5Y4).
T1 construct: expressed in transfected cells; expression induced with sodium butyrate; membrane preparation
T1 sequence (Q9Y5Y4 1-395): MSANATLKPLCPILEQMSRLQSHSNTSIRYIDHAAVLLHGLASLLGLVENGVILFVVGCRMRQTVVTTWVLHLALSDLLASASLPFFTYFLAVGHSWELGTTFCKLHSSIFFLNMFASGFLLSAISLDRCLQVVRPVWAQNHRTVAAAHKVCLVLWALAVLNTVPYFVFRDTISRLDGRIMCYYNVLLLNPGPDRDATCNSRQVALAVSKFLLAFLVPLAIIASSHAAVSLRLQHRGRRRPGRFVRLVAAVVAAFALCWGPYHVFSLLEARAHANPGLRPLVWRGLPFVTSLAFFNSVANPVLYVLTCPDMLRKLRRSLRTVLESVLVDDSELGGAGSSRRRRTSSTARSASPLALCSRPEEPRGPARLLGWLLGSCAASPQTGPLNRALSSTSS
Description: Ligand binding assay, [3H]PGD2 SPA on HEK cell membranes. As to conditions: [3H]PGD2 displacement; membranes of HEK cells expressing rhCRTh2/Gα16; SPA beads; 2 h at RT; read-out: pIC50 value (converted). On the procedure:
[^3H]PGD2 was purchased from Perkin Elmer Life Sciences with a specific activity of 100-210 Ci/mmol. All other chemicals were of analytical grade.
HEK cells expressing rhCRTh2/Gα16 were routinely maintained in DMEM containing 10% Foetal Bovine Serum (HyClone), 1 mg/ml geneticin, 2 mM L-glutamine and 1% non-essential amino acids. For the preparation of membranes, the adherent transfected HEK cells were grown to confluence in two layer tissue culture factories (Fisher, catalogue number TKT-170-070E). Maximal levels of receptor expression were induced by addition of […] sodium butyrate for the last 18 h of culture. The adherent cells were washed once with phosphate buffered saline (PBS, 50 ml per cell factory) and detached by the addition of 50 ml per cell factory of ice-cold membrane homogenisation buffer [20 mM HEPES (pH 7.4), 0.1 mM dithiothreitol, 1 mM EDTA, 0.1 mM phenyl methyl sulphonyl fluoride and 100 μg/ml bacitracin]. […] The final pellet was re-suspended in 4 ml of membrane homogenisation buffer per cell factory used and the protein content determined. […]
All assays were performed in Corning clear bottomed, white 96-well NBS plates (Fisher). […] (The optimum coating concentrations were determined for each batch of membranes) The beads were pelleted by centrifugation (800×g for 7 minutes at 4° C.), washed once with assay buffer (50 mM HEPES pH 7.4 containing 5 mM magnesium chloride) and finally re-suspended in assay buffer at a bead concentration of 10 mg/ml.
Each assay contained 20 μl of 6.25 nM [^3H]PGD2, 20 μl membrane saturated SPA beads both in assay buffer and 10 μl of compound solution or 13,14-dihydro-15-keto prostaglandin D2 (DK-PGD2, for determination of non-specific binding, Cayman chemical company). […] The assay plate was incubated at RT for 2 h and counted on a Wallac Microbeta liquid scintillation counter (1 minute per well).

On to `C[C@H]1CN(Cc2cc(Cl)ccc2CC(=O)O)CCN1C(=O)Cc1ccc(F)cc1F` [Example 12, [4-chloro-2-({(3S)-4-[(2,4-difluorophenyl)acetyl]-3-methylpiperazin-1-yl}methyl)phenyl]acetic acid], for which the IC50 was 7.94 nM.

With `C[C@H]1CN(Cc2cc(Cl)ccc2CCC(=O)O)CCN1C(=O)Cc1ccccc1` [Example 4, 3-(4-chloro-2-{[(3S)-3-methyl-4-(phenylacetyl)piperazin-1-yl]methyl}phenyl)propanoic acid], the IC50 was 79.4 nM.

As for `C[C@H]1CN(Cc2cc(Cl)ccc2CC(=O)O)CCN1S(=O)(=O)c1ccccc1` [Example 9, (4-chloro-2-{[(3S)-3-methyl-4-(phenylsulfonyl)piperazin-1-yl]methyl}phenyl)acetic acid], the IC50 is 14.1 nM.
